Test results from patent US20250304612A1, “THERAPEUTIC AGENT FOR BLOOD CANCER” (Aptabio Therapeutics Inc., priority 2017, published 2025).

Legend:
Assay in all cases: MTT cytotoxicity assay, drug-resistant blood cancer cells
Assay type in all cases: cell-based
[1] = system: Azacitidine-resistant MOLM13; conditions: Homo sapiens, MOLM-13, 120 h, 5 days, read-out: IC50, cytotoxic effects on drug-resistant blood cancer cells
Procedure: (§1) Each oligonucleotide-modified nucleic acid was diluted in a 10 mM Tris-HCl (pH 7.4) solution to a final concentration of 100 μM. The diluted solution was allowed to stand at 94° C. for 5 minutes and then the tube was allowed to stand on ice. The resulting solution was added with a 2M KCl solution such that a final concentration of the KCl solution became 50 mM, allowed to stand at 60° C. for 3 hours and was slowly cooled to room temperature. Each oligonucleotide was diluted in a 10 mM Tris-HCl (pH 7.4) solution to a concentration of 10 μM, and was allowed to stand at 94° C. for 5 minutes, and the tube was allowed to stand on ice. The resulting solution was added with a 2M KCl solution such that the final concentration of the KCl solution became 50 mM, and allowed to stand at 60° C. for 3 hours and then slowly cooled to room temperature, which was then used for the present Example.
(§2) On the day before the experiment, 190 μl of a culture medium (at a concentration of 10^4 to 10^5 cells/ml) containing blood cancer cells such as HL60, MV-4-11, CCRF-CEM, MOLT-4 and MOLM-13 cell lines, and drug-resistant blood cancer cells such as azacitidine (AZA-1)-resistant MOLM13, decitabine (Dec-5)-resistant MOLM13 and cytarabine (AraC-1)-resistant MOLM13 cell lines, and normal cells such as WI38, CCD-18co and Fa2N4 cells were seeded on a 96-well plate. The next day, 10 μl of the oligonucleotide-modified nucleic acid solution prepared in Example 2 was added and then cultured for 5 days.
(§3) Five days after drug treatment, MTT assay was performed to measure cytotoxicity of the cell lines [see JBC 1999, 26369].

[2] = system: Cytarabine-resistant MOLM13; conditions: Homo sapiens, MOLM-13, 120 h, 5 days, read-out: IC50, cytotoxic effects on drug-resistant blood cancer cells
Procedure: as §1, §2, §3

[3] = system: Decitabine-resistant MOLM13; conditions: Homo sapiens, MOLM-13, 120 h, 5 days, read-out: IC50, cytotoxic effects on drug-resistant blood cancer cells
Procedure: as §1, §2, §3

[4] = system: Cytarabine-resistant HL-60; conditions: Homo sapiens, 120 h; Cytarabine-resistant HL-60, MTT, 5 days; read-out: IC50, cytotoxic effects on drug-resistant blood cancer cells
[5] = system: Cytarabine-resistant MV-4-11; conditions: Homo sapiens, MV4-11, 120 h; Cytarabine-resistant MV-4-11, MTT, 5 days; read-out: IC50, cytotoxic effects on drug-resistant blood cancer cells

Nc1ccn([C@@H]2O[C@H](CO)[C@@H](O)[C@@H]2O)c(=O)n1 [Cytarabine, cytarabine]
IC50 [1]: 3.5 µM | IC50 [2]: > 10 µM | IC50 [3]: 3.49 µM | IC50 [4]: > 30 µM | IC50 [5]: > 20 µM
